Tests used:
[1] = test system: Xloc13 lincRNA expression in BRAF^V600E PTC-derived cells; assay: qPCR of Xloc13 expression in BRAF^V600E PTC-derived cells; type: cell-based, human; settings: metastatic or non-metastatic PTC-derived cells; vs. vehicle
[2] = test system: TPO and TTF-1 mRNA in BRAF^V600E PTC-derived cells; assay: qPCR of iodide metabolism genes (TPO, TTF-1 mRNA) in PTC-derived cells
[3] = test system: human invasive heterozygous BRAF^WT/V600E PTC-derived cell line; assay: Invasion of human invasive BRAF^WT/V600E PTC-derived cell line; type: cell-based
[4] = test system: BRAF^WT/V600E PTC-derived cell line xenograft tumors; assay: Xenograft mouse model of human invasive heterozygous BRAF^WT/V600E PTC-derived cell line
[5] = test system: BRAF^V600E PTC-derived cells; assay: 123-Iodide uptake in vitro; settings: Xloc13 lincRNA; synergizes with vemurafenib
[6] = Xloc13+ BRAF^WT/V600E PTC-derived cells

| Molecule | rescue of Xloc13 expression (qPCR) [1] | TPO and TTF-1 mRNA levels rise ([2]; cells engineered to over-express Xloc13 (Xloc13+) during treatment with vemurafenib) | invasion ([3]; Xloc13 lincRNA overexpression alone) | invasion ([3]; Xloc13 lincRNA overexpression plus vemurafenib) | TPO mRNA expression levels ([2]; Xloc13 lincRNA over-expression in PTC-derived cell lines) | EZH2 protein levels [4, 6] | H3K27me3 (EZH2 effector) [4, 6] | decrease in growth ([4]; Xloc13+ cells under vemurafenib therapy vs. backbone vector control) | 123-Iodide uptake in xenograft tumors (nano-SPECT imaging) ([4]; Xloc13+ tumors of vemurafenib-treated mice vs. vehicle-treated backbone vector controls) | 123-iodide uptake/organification in vitro [5] |
| --- | --- | --- | --- | --- | --- | --- | --- | --- | --- | --- |
| CCCS(=O)(=O)Nc1ccc(F)c(C(=O)c2c[nH]c3ncc(-c4ccc(Cl)cc4)cc23)c1F [vemurafenib, reference compound] | 4-6 fold-changes | ~3.5 fold-changes | – | – | – | – | – | – | – | – |
| Xloc13 lincRNA: thyroid-specific long intergenic non-coding RNA (2.257 kb, SEQ ID NO: 1), over-expressed from a vector in PTC-derived cells | – | – | inhibited invasion | inhibits invasion | up-regulates TPO mRNA expression levels | transcriptionally down-regulated EZH2 protein levels | reducing its effector H3K27me3 | > 3 fold | significantly crucial for the recovery | crucial for the rescue |

— patent US20220349015A1, “DIAGNOSIS AND TREATMENT OF THYROID CANCER” (Beth Israel Deaconess Medical Center, Inc., priority 2019, published 2022)
